Measurements from patent US20230242520A1, “MALONITRILE DERIVATIVES” (Hoffmann-La Roche Inc., priority 2020, published 2023).

Molecular target: T1, human cGAS (residues 161-522) (Homo sapiens, UniProt Q8N884)
T1 construct: Recombinantly expressed purified human cGAS (residues 161-522) was used at 25 nM; made in house
Assay: cGAS Activity Assay - Malachite Green (coupled enzymatic assay, phosphate detection)
Assay type: biochemical
Conditions: recombinant human cGAS 25 nM, 80 μM ATP, 80 μM GTP, 100 nM ISD, 4 hour at RT
Method: cGAS Activity Assay—Malachite Green
Compounds were tested for cGAS inhibition in a coupled enzymatic assay based on Phosphate detection by Malachite Green. Final assay conditions were 20 mM TRIS pH 7.5 (Applichem), 5 mM MgCl2 (Sigma) and 0.01% BSA (Sigma) supplemented with 80 μM ATP (Sigma), 80 μM GTP (Sigma) and 100 nM Interferon Stimulating DNA (ISD) (Microsynth). Recombinantly expressed purified human cGAS (residues 161-522) was used at 25 nM.
All compounds were prepared as 10 mM stock solutions in DMSO and a 16 pt dilution series in DMSO with a dilution factor of 2.5 was prepared. 1 μL of DMSO dilution series was transferred to 32.3 μL reaction buffer, mixed by pipetting up/down, spun for 1 minute at 3000 rpm and was visually inspected for precipitation. 5 μL of 3-fold enzyme stock solution were transferred to an empty 384-well Black/Clear Flat Bottom Polystyrene NBS (Corning) rows 3-24. Rows 1-2 were filled with assay buffer. Plates were spun 10 seconds at 1000 rpm (164×g). 5 μL of compound intermediate dilution was added and mixed by pipetting up/down to rows 3-24. Rows 1-2 were filled with 3.1% DMSO assay buffer. Plates were spun 10 seconds at 1000 rpm (164×g). 5 μL 3-fold Nucleotide/DNA mix was added to all wells to start the reaction. Plates were spun 10 seconds at 1000 rpm (164×g) and incubated for 4 hour at room temperature (RT) in the dark. 5 μL 4 U/mL PPase (Sigma) were added to all wells. Plates spun 10 seconds at 1000 rpm (164×g). 10 μL BioMol green Solution (Enzo Life Sciences) was added to all wells. Plates spun 10 seconds at 1000 rpm (164×g) and incubated 30 minutes at RT in the dark. Absorbance data was collected 620 nm on an EnVision Multilable Reader (Perkin Elmer) and the following measurement settings were used: excitation filter photometric was 620 nm; excitation from the top; measurement height was 1 mm; number of flashes was 30; number of flashes integrated was 1.
All plates are checked for abnormalities and outliers in the Blank Control (no protein, row 1) and the Neutral Control (no compound, row 2) are excluded using the 3*SD rule. Data was normalized to 0 and 100% by Blank and Neutral Control and each curve was fitted and judged using the 4 parameter logistic equation to determine the IC50 for cGAS inhibition.
Table 2 provides IC50 values (μM ) for cGAS inhibition obtained for particular examples of the present invention as measured by the above-described assay.

T1 sequence (Q8N884 161-522): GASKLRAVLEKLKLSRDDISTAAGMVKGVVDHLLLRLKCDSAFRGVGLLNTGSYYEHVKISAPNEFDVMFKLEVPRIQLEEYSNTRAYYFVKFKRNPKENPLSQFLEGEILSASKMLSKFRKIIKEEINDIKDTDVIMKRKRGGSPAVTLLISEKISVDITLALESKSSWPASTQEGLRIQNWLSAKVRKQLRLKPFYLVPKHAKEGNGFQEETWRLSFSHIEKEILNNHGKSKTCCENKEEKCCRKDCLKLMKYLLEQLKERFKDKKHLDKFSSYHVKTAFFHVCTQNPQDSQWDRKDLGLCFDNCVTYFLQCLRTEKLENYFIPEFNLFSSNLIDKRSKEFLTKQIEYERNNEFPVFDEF

| Compound | IC50 |
| --- | --- |
| COc1ccc(NC(=O)/C(C#N)=C(\O)c2cnoc2C)nn1 [Example 7, (Z)-2-cyano-3-hydroxy-N-(6-methoxypyridazin-3-yl)-3-(5-methylisoxazol-4-yl)prop-2-enamide] | 1020 nM |
| COc1ccc(NC(=O)/C(C#N)=C(\O)c2cnoc2C)cn1 [Example 8, (Z)-2-cyano-3-hydroxy-N-(6-methoxy-3-pyridyl)-3-(5-methylisoxazol-4-yl)prop-2-enamide] | 1340 nM |
| COc1cccc(-c2cc3cc(NC(=O)/C(C#N)=C(\O)c4cnoc4C)ccc3c(=O)[nH]2)c1 [Example 21, (Z)-2-cyano-3-hydroxy-N-(3-(3-methoxyphenyl)-1-oxo-1,2-dihydroisoquinolin-6-yl)-3-(5-methylisoxazol-4-yl)acrylamide] | 1060 nM |
| N#C/C(C(=O)Nc1ccc(C(F)(F)F)cc1)=C(/O)c1cnco1 [Example 13, (Z)-2-cyano-3-hydroxy-3-(oxazol-5-yl)-N-(4-(trifluoromethyl)phenyl) acrylamide] | 7190 nM |
| Cc1cnoc1/C(O)=C(\C#N)C(=O)Nc1ccc(C(F)(F)F)cc1 [Example 14, (Z)-2-cyano-3-hydroxy-3-(4-methylisoxazol-5-yl)-N-(4-(trifluoromethyl)phenyl) acrylamide] | 8480 nM |
| CCOC(=O)c1c(C)csc1NC(=O)/C(C#N)=C(\O)c1cnoc1C [Example 10, ethyl (Z)-2-(2-cyano-3-hydroxy-3-(5-methylisoxazol-4-yl)acrylamido)-4-methylthiophene-3-carboxylate] | 820 nM |
| Cc1oncc1/C(O)=C(\C#N)C(=O)Nc1ccn(C)c(=O)c1 [Example 5, (Z)-2-cyano-3-hydroxy-3-(5-methylisoxazol-4-yl)-N-(1-methyl-2-oxo-4-pyridyl)prop-2-enamide] | 170 nM |
| Cc1nocc1/C(O)=C(\C#N)C(=O)Nc1ccc(C(F)(F)F)cc1 [Example 11, (Z)-2-cyano-3-hydroxy-3-(3-methylisoxazol-4-yl)-N-(4-(trifluoromethyl)phenyl) acrylamide] | 3990 nM |
| COC(=O)c1ccc(NC(=O)/C(C#N)=C(\O)c2conc2C)cc1 [Example 12, methyl (Z)-4-(2-cyano-3-hydroxy-3-(3-methylisoxazol-4-yl)acrylamido) benzoate] | 1130 nM |
| Cn1nncc1/C(O)=C(\C#N)C(=O)Nc1ccc(C(F)(F)F)cc1 [Example 4, (Z)-2-cyano-3-hydroxy-3-(1-methyl-1H-1,2,3-triazol-5-yl)-N-(4-(trifluoromethyl)phenyl) acrylamide] | 6310 nM |
| Cc1nc(NC(=O)/C(C#N)=C(\O)c2cnoc2C)nc2c1CS(=O)(=O)CC2 [Example 24, (Z)-2-cyano-3-hydroxy-N-(4-methyl-6,6-dioxido-7,8-dihydro-5H-thiopyrano[4,3-d]pyrimidin-2-yl)-3-(5-methylisoxazol-4-yl)acrylamide] | 450 nM |
| Cc1oncc1/C(O)=C(\C#N)C(=O)Nc1ccc2c(c1)CCC2=O [Example 3, (Z)-2-cyano-3-hydroxy-3-(5-methylisoxazol-4-yl)-N-(1-oxoindan-5-yl)prop-2-enamide] | 220 nM |
| Cc1oncc1/C(O)=C(\C#N)C(=O)Nc1cccc2ccccc12 [Example 16, (Z)-2-cyano-3-hydroxy-3-(5-methylisoxazol-4-yl)-N-(naphthalen-1-yl)acrylamide] | 1790 nM |
| COc1cnc(NC(=O)/C(C#N)=C(\O)c2cnoc2C)cn1 [Example 19, (Z)-2-cyano-3-hydroxy-N-(5-methoxypyrazin-2-yl)-3-(5-methylisoxazol-4-yl)prop-2-enamide] | 840 nM |
| Cc1oncc1/C(O)=C(\C#N)C(=O)Nc1ccc2ccccc2c1 [Example 17, (Z)-2-cyano-3-hydroxy-3-(5-methylisoxazol-4-yl)-N-(naphthalen-2-yl)acrylamide] | 1110 nM |
| Cc1oncc1/C(O)=C(\C#N)C(=O)Nc1cccnc1 [Example 2, (Z)-2-cyano-3-hydroxy-3-(5-methylisoxazol-4-yl)-N-(3-pyridyl)prop-2-] | 1570 nM |
| Cc1sncc1/C(O)=C(\C#N)C(=O)Nc1ccc(C(F)(F)F)cc1 [Example 15, (Z)-2-cyano-3-hydroxy-3-(5-methylisothiazol-4-yl)-N-(4-(trifluoromethyl)phenyl) acrylamide] | 4760 nM |
| Cc1oncc1/C(O)=C(\C#N)C(=O)Nc1ccncc1 [Example 18, (Z)-2-cyano-3-hydroxy-3-(5-methylisoxazol-4-yl)-N-(4-pyridyl)prop-2-enamide] | 620 nM |
| Cc1oncc1/C(O)=C(\C#N)C(=O)Nc1cc[nH]c(=O)c1 [Example 6, (Z)-2-cyano-3-hydroxy-3-(5-methylisoxazol-4-yl)-N-(2-oxo-1H-pyridin-4-yl)prop-2-enamide] | 180 nM |
| Cn1cncc1/C(O)=C(\C#N)C(=O)Nc1ccc(C(F)(F)F)cc1 [Example 1, (Z)-2-Cyano-3-hydroxy-3-(1-methyl-1H-imidazol-5-yl)-N-(4-(trifluoromethyl)phenyl)acrylamide] | 1850 nM |
| Cc1cccc(C)c1NC(=O)c1ccc(NC(=O)/C(C#N)=C(\O)c2cnoc2C)cn1 [Example 20, (Z)-5-(2-cyano-3-hydroxy-3-(5-methylisoxazol-4-yl)acrylamido)-N-(2,6-dimethylphenyl) picolinamide] | 500 nM |
| Cc1oncc1/C(O)=C(\C#N)C(=O)Nc1nc2c(c(-c3ccccc3)n1)CCCC2 [Example 22, (Z)-2-cyano-3-hydroxy-3-(5-methylisoxazol-4-yl)-N-(4-phenyl-5,6,7,8-tetrahydroquinazolin-2-yl)acrylamide] | 970 nM |
| COc1nc(NC(=O)/C(C#N)=C(\O)c2cnoc2C)nc2c1CCCC2 [Example 23, (Z)-2-cyano-3-hydroxy-N-(4-methoxy-5,6,7,8-tetrahydroquinazolin-2-yl)-3-(5-methylisoxazol-4-yl)acrylamide] | 5210 nM |
| COC(=O)c1sccc1NC(=O)/C(C#N)=C(\O)c1cnoc1C [Example 9, methyl (Z)-3-(2-cyano-3-hydroxy-3-(5-methylisoxazol-4-yl)acrylamido) thiophene-2-carboxylate] | 1270 nM |
